In patent publication US20180338927A1, “ETHER CELLULOSE DERIVATIVE MICROPARTICLE” (Toray Industries, Inc., priority 2015, published 2018):
Counter-ions that a name gives are not always drawn.

test: Comparison of supported amounts by HPLC (Test Example 8); format: physicochemical; details: porous Example 6 microparticles (Examples 10 to 15) versus raw material ethyl cellulose powder (Comparative Examples 6 to 11)
Protocol: The supported amount ratio of a physiologically active substance between microparticles in an example and microparticles in a comparative example supporting the same physiologically active substance was calculated on the basis of the following equation. HPLC measurement was carried out as follows. After weighing 25 mg each of the microparticles in the examples and the comparative examples, the microparticles were respectively put in 50-mL volumetric flasks. Each type of microparticles was completely dissolved in 5 mL of ethanol added, and the solution was diluted with deionized water added and passed through a 0.45-μm filter to provide an HPLC sample. The sample was measured under the same conditions as for Test Example 5.

| Support amount ratio (=example/comparative example) | SMILES |
| --- | --- |
| 1.4 | CC(=O)Nc1ccc(O)cc1 [Acetaminophen, acetaminophen] |
| 1.2 | CC(C)Cc1ccc(C(C)C(=O)O)cc1 (stereo not drawn) [Ibuprofen, ibuprofen] |
| 1.8 | C=C[C@H]1C[N@@]2CC[C@H]1C[C@H]2[C@H](O)c1ccnc2ccc(OC)cc12 [Quinine hydrochloride dihydrate, quinine hydrochloride dihydrate] |
| 1.6 | O=C(O)c1ccccc1O [Salicylic acid, salicylic acid] |
| 1.2 | Cn1c(=O)c2[nH]cnc2n(C)c1=O [Theophylline, theophylline] |
| 10.7 | Cc1ncc(C[n+]2csc(CCO)c2C)c(N)n1 [Thiamine hydrochloride, thiamine hydrochloride] |
